Experimental data: patent publication US8680290B2, “Isoxazoline derivatives and their use as herbicides” (Syngenta Limited, priority 2004, dated 2014)

What was measured:
Format in all cases: in vivo
[1] = test system: Monocotyledonous and dicotyledonous test plants; assay: Example B1 herbicidal action, application pre-emergence (Table B1b); details: 250 g/ha, evaluated after 4 weeks
How it was run: (§1)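 Visual damage rating, 10 = plant dead and 0 = unharmed, taken at 3 weeks for post-emergence and 4 weeks for pre-emergence treatment. Application by spray of formulated aqueous solution either immediately after sowing or at 8–9 days' growth, with mono- and dicot plants kept in a greenhouse.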

maize [2] = assay: Example E1 pre-emergent safening test on maize (Tables E1 Marista, E2 Lorenzo); details: after 14 days
Description: The test plants were sown in seed trays under greenhouse conditions. A standard earth was used as the culture substrate. In a pre-emergent stage, the herbicides were applied both by themselves and in a mixture with safeners to the soil surface. The application was carried out with an aqueous suspension of the test substances, prepared from a 25% wettable powder (Example F3, b according to WO 97/34485) or from a suspension concentrate (Example F8 according to WO 97/34485), to achieve a field equivalent of 200 l/ha. The tests were evaluated after 14 days (100%=plants completely dead; 0%=no phytotoxic action on the plants).

[3] = test system: Monocotyledonous and dicotyledonous test plants; assay: Example B1 herbicidal action, application post-emergence (Table B1a); details: 250 g/ha, evaluated after 3 weeks, scale 0-10
How it was run: as §1

maize [4] = assay: Example F1 post-emergent safening test on maize (Table F1, Marista 11f); details: post-emergent (GS 11), after 28 days
Description: The test plants were sown in containers under glasshouse conditions. A standard earth was used as the culture substrate. In a maize growth stage of one leaf (GS 11), the herbicides were applied both by themselves and in a mixture with safeners to the soil and leaf surface. The application was carried out with an aqueous suspension of the test substances, prepared from a 25% wettable powder (Example F3,b according to WO 97/34485) or a suspension concentrate (Example F8 according to WO 97/34485), to achieve a field equivalent of 200 l/ha. The tests were evaluated after 28 days (100%=plants completely dead; 0%=no phytotoxic action on the plants).

[5] = test system: Monocotyledonous and dicotyledonous test plants; assay: Example B2 herbicidal action, application post-emergence, 96-cell seed trays (Table B2a); details: 1000 g/ha
Description: Monocotyledonous and dicotyledonous test plants were sown in sterilised standard soil in seed trays each having 96 cells. After one day (pre-emergence) or after 8 to 9 days cultivation (post-emergence) under controlled conditions in a climatic chamber (cultivation at 17/23° C.; 13 hours light; 50-60% humidity; after application at 19/24° C.), the plants were treated with an aqueous spray solution of 1000 mg/l of the active ingredient used (rate of application: […]; incl. 10% DMSO as solvent). The plants were grown on in the climatic chamber until the test was evaluated (10 total damage to plant, 0=no damage to plant) after 9 or 13 days.

[6] = test system: Monocotyledonous and dicotyledonous test plants; assay: Example B2 herbicidal action, application pre-emergence, 96-cell seed trays (Table B2b); details: 1000 g/ha
How it was run: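 Mono- and dicot plants in sterilised soil, 96-cell trays, sprayed 1 day after sowing (pre-emergence) or after 8–9 days growth (post-emergence) with aqueous 1000 mg/l active ingredient, 10% DMSO; climatic chamber 17/23° C, 13 h light. Damage scored 0–10 after 9 or 13 days.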

In the case of `Cn1nc(C(F)(F)F)c(C(Cl)S(=O)(=O)C2=NOC(C)(C)C2)c1OCC(F)(F)F` (stereo not drawn) [2.04], the “herbicidal action (damage rating 0-10), Amaranthus” value (from here on “herbicidal action … Amaranthus”) [1] is reported as 10, the “herbicidal action (damage rating 0-10), Digitaria” value (from here on “herbicidal action … Digitaria”) [1] is reported as 10 and the “herbicidal action (damage rating 0-10), Panicum” value (“herbicidal action … Panicum” for short) [1] is reported as 10. For the same compound, the “herbicidal action (damage rating 0-10), Setaria” value (“herbicidal action … Setaria” below) [1] was 10, the “herbicidal action (damage rating 0-10), Sida” value (“herbicidal action … Sida” for short) [1] was 8 and the “phytotoxic action on maize (Lorenzo)” value (maize [2]; herbicide alone 100 g/ha) was 2.5%. The “phytotoxic action on maize (Marista)” value (maize [2]; herbicide alone 100 g/ha) was 10%, the “phytotoxic action on maize (Lorenzo)” value (maize [2]; herbicide alone 200 g/ha) was 17.5% and the “phytotoxic action on maize (Marista)” value (maize [2]; herbicide alone 200 g/ha) was 15%. For the same compound, the “herbicidal damage rating, Abutilon” value [3] was 7, the “herbicidal damage rating, Amaranthus” value [3] was 4 and the “herbicidal damage rating, Digitaria” value [3] was 4. For the same compound, the “herbicidal damage rating, Panicum” value [3] was 8, the “herbicidal damage rating, Setaria” value [3] was 6 and the “herbicidal damage rating, Sida” value [3] was 6.
`Cn1nc(C(F)(F)F)c(C(Br)S(=O)(=O)C2=NOC(C)(C)C2)c1OCC(F)(F)F` (stereo not drawn) [2.10] was tested, and the “herbicidal action … Amaranthus” value [1] was 10, the “herbicidal action … Digitaria” value [1] was 10 and the “herbicidal action … Panicum” value [1] was 10. The “herbicidal action … Setaria” value [1] was 10, the “herbicidal action … Sida” value [1] was 8 and the “phytotoxic action on maize (Marista 11f)” value (maize [4]; herbicide alone 37.5 g/ha) was 20%. The “phytotoxic action on maize (Marista 11f)” value (maize [4]; herbicide alone 75 g/ha) was 50%, the “phytotoxic action on maize (Marista 11f)” value (maize [4]; herbicide alone 150 g/ha, 100%=plants completely dead) was 75% and the “herbicidal damage rating, Abutilon” value [3] was 6. For the same compound, the “herbicidal damage rating, Amaranthus” value [3] was 8, the “herbicidal damage rating, Digitaria” value [3] was 6 and the “herbicidal damage rating, Panicum” value [3] was 7. The “herbicidal damage rating, Setaria” value [3] was 5 and the “herbicidal damage rating, Sida” value [3] was 4.
With `CC1(C)CC(S(=O)(=O)C(Cl)c2c(F)cccc2F)=NO1` (stereo not drawn) [Compound No. 1.07, 3-[chloro-(2,6-difluoro-phenyl)-methanesulfonyl]-5,5-dimethyl-4,5-dihydroisoxazole] the “herbicidal action … Amaranthus” value [1] was 8, the “herbicidal action … Digitaria” value [1] was 10 and the “herbicidal action … Panicum” value [1] was 10. The “herbicidal action … Setaria” value [1] was 10, the “herbicidal action … Sida” value [1] was 7 and the “herbicidal action (damage rating 0-10), Agrostis” value ([5]; Agrostis) was 8. For the same compound, the “herbicidal action … Amaranthus” value ([5]; Amaranthus) was 7, the “herbicidal action (damage rating 0-10), Poa” value ([5]; Poa) was 8 and the “herbicidal action … Setaria” value ([5]; Setaria) was 7. For the same compound, the “herbicidal damage rating, Abutilon” value [3] was 5, the “herbicidal damage rating, Amaranthus” value [3] was 3 and the “herbicidal damage rating, Digitaria” value [3] was 5. The “herbicidal damage rating, Panicum” value [3] was 7, the “herbicidal damage rating, Setaria” value [3] was 7 and the “herbicidal damage rating, Sida” value [3] was 2. For the same compound, the “herbicidal action (damage rating 0-10), Agrostis” value ([6]; Agrostis) was 10, the “herbicidal action … Digitaria” value ([6]; Digitaria) was 10 and the “herbicidal action (damage rating 0-10), Poa” value ([6]; Poa) was 10. The “herbicidal action … Setaria” value ([6]; Setaria) was 10.
